The subject of one assay is TEAD Reporter-MCF7 cell line. Kind of assay: YAP/TEAD cellular activity assay: inhibition of TEAD-Luc activity in TEAD Reporter-MCF7 cell line. The format is cell-based, human. To be noted: Homo sapiens, MCF7, 24 h, TEAD Reporter-MCF7 cells, 24 hours incubation with compound, luciferase readout. The method in brief: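 MCF7 cells stably carrying a TEAD-responsive firefly luciferase reporter were seeded at 10,000 cells/well, grown 20-24 h, then exposed to compounds for 24 h at 37° C. Luciferase read by ONE-Glo EX luminescence; percent inhibition and EC50 derived.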
Consider `CNS(=O)(=O)c1cnc(Oc2ccc(C(F)(F)F)cc2)c(-c2cn3c(n2)CCC3)c1` [11-1, 5-(6,7-dihydro-5H-pyrrolo[1,2-a]imidazol-2-yl)-N-methyl-6-[4-(trifluoromethyl)phenoxy]pyridine-3-sulfonamide], for which the 50% effective concentration (EC50) turned out to be 8.7 nM.

As for `CNS(=O)(=O)c1ccc(Oc2cccc(OC(F)(F)F)c2)c(-c2cnn3c2CCC3)c1` [3-5, 3-(5,6-dihydro-4H-pyrrolo[1,2-b]pyrazol-3-yl)-N-methyl-4-[3-(trifluoromethoxy)phenoxy]benzene-1-sulfonamide], the EC50 was 3090 nM.

As to `CNS(=O)(=O)c1ccc(Oc2ccc(F)c(F)c2)c(-c2cnn3c2OCC3)c1` [1-48, 4-(3,4-difluorophenoxy)-3-(2,3-dihydropyrazolo[5,1-b]oxazol-7-yl)-N-methylbenzenesulfonamide], the EC50 is 1060 nM.

For `CNS(=O)(=O)c1ccc(Oc2ccc(C(F)(F)F)cc2)c(-c2cnn3c2CCC3)c1` [1-5, 3-(5,6-dihydro-4H-pyrrolo[1,2-b]pyrazol-3-yl)-N-methyl-4-[4-(trifluoromethyl)phenoxy]benzene-1-sulfonamide], the EC50 was 106 nM.

`CNS(=O)(=O)c1ccc(Oc2ccc(C(F)(F)F)cc2)c(-c2cnc3[nH]ccc3c2)c1` [2-10, N-methyl-3-(1H-pyrrolo[2,3-b]pyridin-5-yl)-4-[4-(trifluoromethyl)phenoxy]benzene-1-sulfonamide]: the EC50 was 2420 nM.

For the compound `CNS(=O)(=O)c1ccc(Oc2ccc(C(F)(F)F)cc2)c(-c2cc3n(n2)CCC3)c1` [1-2, 3-(5,6-Dihydro-4H-pyrrolo[1,2-b]pyrazol-2-yl)-N-methyl-4-(4-(trifluoromethyl)phenoxy)benzenesulfonamide], the EC50 is 5.1 nM.

Take `CNS(=O)(=O)c1ccc(Oc2ccc(C(F)(F)F)cc2)c(-c2nc3ccccc3o2)c1` [1-29, 3-(1,3-benzoxazol-2-yl)-N-methyl-4-[4-(trifluoromethyl)phenoxy]benzene-1-sulfonamide]: the EC50 came to 861 nM.

With `CNS(=O)(=O)c1ccc(Oc2ccc(C(F)F)cc2)c(-c2cn3c(n2)CCC3)c1` [1-40, 4-[4-(difluoromethyl)phenoxy]-3-(6,7-dihydro-5H-pyrrolo[1,2-a]imidazol-2-yl)-N-methylbenzene-1-sulfonamide], the EC50 amounted to 27 nM.

For the compound `CNS(=O)(=O)c1ccc(Oc2ccc(C)cc2)c(-c2cn3c(n2)CCC3)c1` [4-7, 3-(6,7-dihydro-5H-pyrrolo [1,2-a]imidazol-2-yl)-N-methyl-4-(4-methylphenoxy)benzene-1-sulfonamide], the EC50 came out at 23.8 nM.

Regarding `CNS(=O)(=O)c1ccc(Oc2ccc(C(F)(F)F)cc2)c(-c2ccc3c(c2)OCC(=O)N3)c1` [2-28, N-methyl-3-(3-oxo-3,4-dihydro-2H-1,4-benzoxazin-7-yl)-4-[4-(trifluoromethyl)phenoxy]benzene-1-sulfonamide], the EC50 was found to be 5230 nM.

Consider `CNS(=O)(=O)c1ccc(Oc2ccc(C(F)(F)F)cc2)c(-c2cnn3c2CCCC3)c1` [2-16, N-methyl-3-(4,5,6,7-tetrahydropyrazolo[1,5-a]pyridin-3-yl)-4-[4-(trifluoromethyl)phenoxy]benzene-1-sulfonamide], for which the EC50 came to 631 nM.

As for `O=S(=O)(NCC1CC1)c1ccc(Oc2ccc(C(F)(F)F)cc2)c(-c2cnn3c2CCC3)c1` [5-1, N-(Cyclopropylmethyl)-3-(5,6-dihydro-4H-pyrrolo[1,2-b]pyrazol-3-yl)-4-(4-(trifluoromethyl)phenoxy)benzenesulfonamide], the EC50 was 4410 nM.

Turning to `CNS(=O)(=O)c1ccc(Oc2ccc(S(F)(F)(F)(F)F)cc2)c(-c2cn3c(n2)CCC3)c1` [4-18, 3-(6,7-dihydro-5H-pyrrolo[1,2-a]imidazol-2-yl)-N-methyl-4-[4-(pentafluoro-lambda~6~-sulfanyl)phenoxy]benzene-1-sulfonamide], the EC50 came out at 15.2 nM.

With `CNS(=O)(=O)c1ccc(Oc2ccc(C(F)(F)F)cc2)c(-c2nc3cc(OC)ccc3[nH]2)c1` [1-12, 3-(5-methoxy-1H-benzimidazol-2-yl)-N-methy1-4-[4-(trifluoromethyl)phenoxy]benzene-1-sulfonamide], the EC50 was determined as 5440 nM.

Consider `CNS(=O)(=O)c1ccc(Oc2ccc(C(C)(C)C)cc2)c(-c2cn3c(n2)CCC3)c1` [4-3, 4-(4-tert-butylphenoxy)-3-(6,7-dihydro-5H-pyrrolo[1,2-a]imidazol-2-yl)-N-methylbenzene-1-sulfonamide], for which the EC50 is 5.7 nM.

Take `CNS(=O)(=O)c1ccc(Oc2ccc(C(F)(F)F)cc2)c(-c2nc3cccnc3s2)c1` [1-11, N-methyl-3-([1,3]thiazolo[5,4-b]pyridin-2-yl)-4-[4-(trifluoromethyl)phenoxy]benzene-1-sulfonamide]: the EC50 amounted to 238 nM.

For the compound `CNS(=O)(=O)c1ccc(Oc2ccc(C(F)(F)F)cc2)c(-n2cc3c(n2)CCC3)c1` [6-2, 3-(5,6-dihydrocyclopenta[c]pyrazol-2(4H)-yl)-N-methyl-4-[4-(trifluoromethyl)phenoxy]benzene-1-sulfonamide], the EC50 amounted to 68.5 nM.

For `CNS(=O)(=O)c1ccc(Oc2ccc(C(F)(F)F)cc2)c(-c2ccc3cc(OC)nnc3c2)c1` [2-2, 3-(3-Methoxycinnolin-7-yl)-N-methyl-4-[4-(trifluoromethyl)phenoxy]benzene-1-sulfonamide], the EC50 stood at 50.5 nM.

In the case of `CNS(=O)(=O)c1ccc(Oc2ccc(C(F)(F)F)cc2)c(-c2cccc3nc(N)[nH]c23)c1` [2-13, 3-(2-amino-1H-benzimidazol-7-yl)-N-methyl-4-[4-(trifluoromethyl)phenoxy]benzene-1-sulfonamide], the EC50 was 3650 nM.

With `CNS(=O)(=O)c1ccc(Oc2ccc(C(F)(F)F)cc2)c(-c2cn3ccc(F)cc3n2)c1` [1-32, 3-(7-fluoroimidazo[1,2-a]pyridin-2-yl)-N-methyl-4-[4-(trifluoromethyl)phenoxy]benzene-1-sulfonamide], the EC50 was 62.4 nM.

Take `CNS(=O)(=O)c1ccc(Oc2ccc(C)cc2F)c(-c2cn3c(n2)CCC3)c1` [4-19, 3-(6,7-dihydro-5H-pyrrolo[1,2-a]imidazol-2-yl)-4-(2-fluoro-4-methylphenoxy)-N-methylbenzene-1-sulfonamide]: the concentration giving a half-maximal response (EC50) turned out to be 15.3 nM.

Take `CNS(=O)(=O)c1ccc(Oc2ccc(C(F)(F)F)cc2)c(-c2nc3ccccc3s2)c1` [1-28, 3-(1,3-benzothiazol-2-yl)-N-methyl-4-[4-(trifluoromethyl)phenoxy]benzene-1-sulfonamide]: the EC50 worked out at 66.6 nM.

Consider `CNS(=O)(=O)c1ccc(Oc2ccc(C(F)(F)F)cc2)c(-c2cnn3c2OCC3)c1` [2-1, 3-(2,3-Dihydropyrazolo[5,1-b]oxazol-7-yl)-N-methyl-4-(4-(trifluoromethyl)phenoxy)benzenesulfonamide], for which the EC50 came to 26 nM.

As to `CNS(=O)(=O)c1ccc(Oc2ccc(C(F)(F)F)cc2)c(-c2cn3ccc(C(=O)OC)cc3n2)c1` [1-30, methyl 2-{5-(methylsulfamoyl)-2-[4-(trifluoromethyl)phenoxy]phenyl} imidazo[1,2-a]pyridine-7-carboxylate], the EC50 was found to be 7800 nM.

For the compound `CNS(=O)(=O)c1cnc(Oc2ccc(C(F)(F)F)cc2)c(-c2cc3n(n2)CCC3)c1` [8-3, 5-(5,6-dihydro-4H-pyrrolo[1,2-b]pyrazol-2-yl)-N-methyl-6-[4-(trifluoromethyl)phenoxy]pyridine-3-sulfonamide], the EC50 was found to be 1.3 nM.

As to `CNS(=O)(=O)c1ccc(Oc2ccc(C(F)(F)F)cc2)c(-c2cnc3cc(C)ccn23)c1` [1-25, N-methyl-3-(7-methylimidazo[1,2-a]pyridin-3-yl)-4-[4-(trifluoromethyl)phenoxy]benzene-1-sulfonamide], the EC50 came to 3270 nM.

In the case of `CNS(=O)(=O)c1ccc(Oc2ccc(C(F)(F)F)cc2)c(-c2cc3c(cc2F)N(C)C(=O)CC3)c1` [2-23, 3-(7-fluoro-1-methyl-2-oxo-1,2,3,4-tetrahydroquinolin-6-yl)-N-methyl-4-[4-(trifluoromethyl)phenoxy]benzene-1-sulfonamide], the EC50 is 3640 nM.

With `CNS(=O)(=O)c1ccc(Oc2ccc(C(F)(F)F)cc2)c(-c2ccc3c(c2)CC(=O)N3)c1` [2-4, N-methyl-3-(2-oxo-2,3-dihydro-1H-indol-5-yl)-4-[4-(trifluoromethyl)phenoxy]benzene-1-sulfonamide], the EC50 was found to be 5480 nM.

As to `CNS(=O)(=O)c1ccc(Oc2ccc(C(F)(F)F)cc2)c(-c2[nH]nc3ccccc23)c1` [1-8, 3-(2H-indazol-3-yl)-N-methyl-4-[4-(trifluoromethyl)phenoxy]benzene-1-sulfonamide], the EC50 came out at 2870 nM.

As to `CNS(=O)(=O)c1ccc(Oc2ccc(F)cc2)c(-c2cn3c(n2)CCC3)c1` [4-13, 3-(6,7-dihydro-5H-pyrrolo [1,2-a]imidazol-2-yl)-4-(4-fluorophenoxy)-N-methylbenzene-1-sulfonamide], the EC50 was found to be 207 nM.

`CNS(=O)(=O)c1ccc(Oc2ccc(C(C)C)cc2)c(-c2cn3c(n2)CCC3)c1` [4-8, 3-(6,7-dihydro-5H-pyrrolo [1,2-a]imidazol-2-yl)-N-methyl-4-[4-(propan-2-yl)phenoxy]benzene-1-sulfonamide]: the EC50 is 5.5 nM.

In the case of `CNS(=O)(=O)c1ccc(Oc2cc(F)cc(C(F)(F)F)c2)c(-c2cnn3c2CCC3)c1` [3-3, 3-(5,6-dihydro-4H-pyrrolo[1,2-b]pyrazol-3-yl)-4-[3-fluoro-5-(trifluoromethyl)phenoxy]-N-methylbenzene-1-sulfonamide], the EC50 turned out to be 2080 nM.

Still in this assay, the particulars now being: Homo sapiens; TEAD Reporter-MCF7 cells, 24 hours incubation with compound, luciferase readout.
For the compound `CNS(=O)(=O)c1ccc(Oc2ccc(Cl)cc2)c(-c2cc3n(n2)CCC3)c1` [8-1, 4-(4-Chlorophenoxy)-3-(5,6-dihydro-4H-pyrrolo[1,2-b]pyrazol-2-yl)-N-methylbenzene-1-sulfonamide], the EC50 was determined as 10.4 nM.

The same assay, now with this note: TEAD Reporter-MCF7 cells, 24 hours incubation with compound, luciferase readout.
For the compound `CNS(=O)(=O)c1ccc(Oc2ccc(C(F)(F)F)cc2)c(-c2cn3c(n2)CC(C)C3)c1` (single isomer, unassigned) [1-41, (R)- or (S)-N-methyl-3-(6-methyl-6,7-dihydro-5H-pyrrolo [1,2-a]imidazol-2-yl)-4-[4-(trifluoromethyl)phenoxy]benzene-1-sulfonamide], the EC50 came out at 26.1 nM.

One may read the EC50 as the midpoint of the concentration-response curve.
